Measured values: US6967215B2, “Tetrahydrocarbazoles, a process for the preparation of those compounds, and the use thereof” (Ciba Specialty Chemicals Corporation, priority 2000, dated 2005)

Legend:
Assay in all cases: MIC, microtitre dilution test (growth by optical density at 620 nm)
Format in all cases: cell-based
[1] = test system: Staphylococcus hominis DMS 20328
Method: (§1) Casein/soybean flour peptone bouillon for the preparation of pre-cultures of the test bacteria and yeast.
(§2) The test substances are predissolved in dimethyl sulfoxide (DMSO) and tested in a dilution series of 1:2.
(§3) Bacteria and yeast are cultured overnight in CASO bouillon, the mould is cultured overnight on mycological slant agar, and washed off with 10 ml of 0.85% sodium chloride solution (+0.1% TritonX-100).
(§4) All the test organisms are adjusted to an organism count of 1-5×10^6 CFU/ml using 0.85% sodium chloride solution.
(§5) The test substances are pre-pipetted into microtitre plates in an amount of 8 μl per well.
(§6) Pre-diluted organism suspensions are diluted 1:100 in CASO bouillon (bacteria and yeast) or Sabouraud 2% glucose bouillon (mould) and are added in an amount of 192 μl per well to the test substances.
(§7) The test batches are incubated for 48 hours at 37° C. (bacteria and yeast) or for 5 days at 28° C. (mould).
(§8) After incubation, the growth is evaluated by reference to the turbidity of the test batches (optical density) at 620 nm in a microplate reader.
(§9) The minimum inhibitory concentration (MIC value) is the concentration of substance at which (compared with the growth of the control) an appreciable inhibition of growth (≦20% growth) of the test organisms is ascertained.
(§10) One microtitre plate is used for each test organism and substance concentration. All the substances are tested in duplicate.

[2] = test system: Escherichia coli NCTC 8196; settings: for MIC [ppm] E. coil: Table 5
Method: as §1, §2, §3, §4, §5, §6, §7, §8, §9, §10

P. aeruginosa = settings: Table 5
Method: All the test organisms are adjusted to an organism count of 1-5×10^6 CFU/ml using 0.85% sodium chloride solution. The test substances are pre-pipetted into microtitre plates in an amount of 8 μl per well. Pre-diluted organism suspensions are diluted 1:100 in CASO bouillon (bacteria and yeast) or Sabouraud 2% glucose bouillon (mould) and are added in an amount of 192 μl per well to the test substances. The test batches are incubated for 48 hours at 37° C. (bacteria and yeast) or for 5 days at 28° C. (mould). After incubation, the growth is evaluated by reference to the turbidity of the test batches (optical density) at 620 nm in a microplate reader. The minimum inhibitory concentration (MIC value) is the concentration of substance at which (compared with the growth of the control) an appreciable inhibition of growth (≦20% growth) of the test organisms is ascertained. One microtitre plate is used for each test organism and substance concentration. All the substances are tested in duplicate.

[3] = test system: Aspergillus niger ATCC 6175; settings: Table 5
Method: Nutrient: Mycological slant agar for the pre-culture of moulds [table] The test substances are predissolved in dimethyl sulfoxide (DMSO) and tested in a dilution series of 1:2. Bacteria and yeast are cultured overnight in CASO bouillon, the mould is cultured overnight on mycological slant agar, and washed off with 10 ml of 0.85% sodium chloride solution (+0.1% TritonX-100). All the test organisms are adjusted to an organism count of 1-5×10^6 CFU/ml using 0.85% sodium chloride solution. The test substances are pre-pipetted into microtitre plates in an amount of 8 μl per well. Pre-diluted organism suspensions are diluted 1:100 in CASO bouillon (bacteria and yeast) or Sabouraud 2% glucose bouillon (mould) and are added in an amount of 192 μl per well to the test substances. The test batches are incubated for 48 hours at 37° C. (bacteria and yeast) or for 5 days at 28° C. (mould). After incubation, the growth is evaluated by reference to the turbidity of the test batches (optical density) at 620 nm in a microplate reader. The minimum inhibitory concentration (MIC value) is the concentration of substance at which (compared with the growth of the control) an appreciable inhibition of growth (≦20% growth) of the test organisms is ascertained. One microtitre plate is used for each test organism and substance concentration. All the substances are tested in duplicate.

[4] = Table 2, Staphylococcus hominis DMS 20328

| MIC [ppm] S. hominis ([1]; Table 5) [ppm] | MIC [ppm] E. coil [2] [ppm] | MIC [ppm] P. aeruginosa (P. aeruginosa) [ppm] | MIC [ppm] A. niger [3] [ppm] | MIC ([1]; DMS20328, Table 2, Staphylococcus hominis DMS 20328, read-out: MIC [ppm] S. hominis) [µg/mL] | MIC ([2]; NCTC8196, Table 2, Escherichia coli, read-out: MIC [ppm] E. coli) [µg/mL] | MIC [ppm] S. hominis [1, 4] [ppm] | MIC [ppm] E. coli ([2]; Table 2, Escherichia coli) [ppm] | Structure (SMILES) |
| --- | --- | --- | --- | --- | --- | --- | --- | --- |
| >120 | >120 | >120 | >120 |  |  |  |  | CCCN1CCC2c3c([nH]c4c(OC)cccc34)C3C(=O)NC(=O)C3C2C1 (stereo not drawn) [Compound 229] |
| >120 | 120 | 120 | >120 |  |  |  |  | CCCN1CCC2c3c([nH]c4c(F)cccc34)C3C(=O)NC(=O)C3C2C1 (stereo not drawn) [Compound 211] |
| >120 | >120 | 120 | >120 |  |  |  |  | CCCN1CCC2c3c([nH]c4cccc(C)c34)C3C(=O)NC(=O)C3C2C1 (stereo not drawn) [Compound 186] |
| 120 | 120 | >120 | >120 |  |  |  |  | CCCN1CCC2c3c([nH]c4c(C)cccc34)C3C(=O)NC(=O)C3C2C1 (stereo not drawn) [Compound 222] |
| >120 | >120 | >120 | >120 |  |  |  |  | CCCN1CCC2c3c([nH]c4cc(F)c(F)cc34)C3C(=O)NC(=O)C3C2C1 (stereo not drawn) [Compound 219] |
| >120 | >120 | >120 | >120 |  |  |  |  | CCCN1CCC2c3c([nH]c4cc(OC)c(OC)cc34)C3C(=O)NC(=O)C3C2C1 (stereo not drawn) [Compound 238] |
| 120 | >120 | >120 | >120 |  |  |  |  | CCCN1CCC2c3c([nH]c4ccc(C(=O)OC)cc34)C3C(=O)NC(=O)C3C2C1 (stereo not drawn) [Compound 235] |
| >120 | >120 | 60 | >120 |  |  |  |  | CCCN1CCC2c3c([nH]c4cccc(C(=O)OC)c34)C3C(=O)NC(=O)C3C2C1 (stereo not drawn) [Compound 201] |
| 15 | >120 | >120 | >120 |  |  |  |  | O=C1NC(=O)C2C1c1[nH]c3ccccc3c1C1CC3CCCCC3CC12 (stereo not drawn) [Compound 183] |
| >120 | >120 | 120 | >120 |  |  |  |  | CCCN1CCC2c3c([nH]c4cccc(Cl)c34)C3C(=O)NC(=O)C3C2C1 (stereo not drawn) [Compound 224] |
| 30 | 60 | 120 | >120 |  |  |  |  | CCCN1CCC2c3c([nH]c4cc(C(F)(F)F)ccc34)C3C(=O)NC(=O)C3C2C1 (stereo not drawn) [Compound 215] |
| 30 | >120 | 60 | >120 |  |  |  |  | COc1cccc2[nH]c3c(c12)C1CCCCCC1C1C(=O)NC(=O)C31 (stereo not drawn) [Compound 187] |
| 15 | 120 | >120 | >120 |  |  |  |  | CC(C)NCC(O)COc1cccc2[nH]c3c(c12)C1CCCCCC1C1C(=O)NC(=O)C31 (stereo not drawn) [Compound 189] |
| >120 | >120 | >120 | >120 |  |  |  |  | CCCN1CCC2c3c([nH]c4cc(C)ccc34)C3C(=O)NC(=O)C3C2C1 (stereo not drawn) [Compound 203] |
|  |  |  |  | > 120 | > 120 |  |  | CC1CCC2C(C1)c1c([nH]c3ccccc13)C1C(=O)N(C)C(=O)C12 (stereo not drawn) [Compound 117] |
| >120 | 60 | >120 | >120 |  |  |  |  | CCCN1CCC2c3c([nH]c4ccc(F)cc34)C3C(=O)NC(=O)C3C2C1 (stereo not drawn) [Compound 193] |
|  |  |  |  |  |  | >120 | >120 | COc1ccc2[nH]c3c(c2c1)C1CCCCCC1C1C(=O)N(C)C(=O)C31 (stereo not drawn) [Compound 167] |
|  |  |  |  |  |  | 120 | >120 | COc1ccc2[nH]c3c(c2c1)C1CCCCCCC1C1C(=O)NC(=O)C31 (stereo not drawn) [Compound 107] |

| MIC [ppm] S. hominis ([1]; Table 5) [ppm] | MIC [ppm] E. coil [2] [ppm] | MIC [ppm] P. aeruginosa (P. aeruginosa) [ppm] | MIC [ppm] A. niger [3] [ppm] | MIC ([1]; DMS20328, Table 2, Staphylococcus hominis DMS 20328, read-out: MIC [ppm] S. hominis) [µg/mL] | MIC ([2]; NCTC8196, Table 2, Escherichia coli, read-out: MIC [ppm] E. coli) [µg/mL] | MIC [ppm] S. hominis [1, 4] [ppm] | MIC [ppm] E. coli ([2]; Table 2, Escherichia coli) [ppm] | Structure (SMILES) |
| --- | --- | --- | --- | --- | --- | --- | --- | --- |
|  |  |  |  |  |  | 30 | >120 | CCc1cccc2c3c([nH]c12)C1C(=O)NC(=O)C1C1CCCC31 (stereo not drawn) [Compound 75] |
|  |  |  |  |  |  | 15 | >120 | CN1C(=O)C2c3[nH]c4ccc(Br)cc4c3C3CCCCCC3C2C1=O (stereo not drawn) [Compound 130] |
|  |  |  |  |  |  | >120 | >120 | COc1ccc2[nH]c3c(c2c1)C1CC(C)CCC1C1C(=O)N(C)C(=O)C31 (stereo not drawn) [Compound 172] |
|  |  |  |  |  |  | >120 | >120 | CN1C(=O)C2c3[nH]c4ccccc4c3C3CCN(Cc4ccccc4)CC3C2C1=O (stereo not drawn) [Compound 122] |
|  |  |  |  |  |  | >120 | >120 | CCCN1CCC2c3c([nH]c4ccc(OC)cc34)C3C(=O)N(C)C(=O)C3C2C1 (stereo not drawn) [Compound 169] |
|  |  |  |  |  |  | >120 | >120 | CCOC(=O)N1CCC2c3c([nH]c4ccccc34)C3C(=O)N(c4ccccc4)C(=O)C3C2C1 (stereo not drawn) [Compound 52] |
|  |  |  |  |  |  | >120 | >120 | CCCCCCC1CCC2C3C(=O)NC(=O)C3c3[nH]c4c(CC)cccc4c3C12 (stereo not drawn) [Compound 83] |
|  |  |  |  |  |  | 30 | 60 | CCCN1CCC2c3c([nH]c4ccc(Br)cc34)C3C(=O)NC(=O)C3C2C1 (stereo not drawn) [Compound 33] |
|  |  |  |  |  |  | >120 | >120 | CN1C(=O)C2c3[nH]c4ccccc4c3C3CC(C)(C)CC(C)(C)C3C2C1=O (stereo not drawn) [Compound 126] |
|  |  |  |  |  |  | 120 | >120 | O=C1NC(=O)C2C1c1[nH]c3ccccc3c1C1CCN(Cc3ccccc3)CC12 (stereo not drawn) [Compound 60] |
|  |  |  |  |  |  | 15 | >120 | CC(C)(C)C1CCC2c3c([nH]c4ccc(Br)cc34)C3C(=O)NC(=O)C3C2C1 (stereo not drawn) [Compound 31] |
|  |  |  |  |  |  | >120 | >120 | CCCN1CCC2c3c([nH]c4ccccc34)C3C(=O)N(C)C(=O)C3C2C1 (stereo not drawn) [Compound 114] |
|  |  |  |  |  |  | 7.5 | >120 | CC1(C)CC2c3c([nH]c4ccccc34)C3C(=O)NC(=O)C3C2C(C)(C)C1 (stereo not drawn) [Compound 63] |
|  |  |  |  |  |  | 60 | >120 | O=C1NC(=O)C2C1c1[nH]c3ccc(Br)cc3c1C1CCCCCCC12 (stereo not drawn) [Compound 73] |
|  |  |  |  |  |  | >120 | >120 | COc1ccc2[nH]c3c(c2c1)C1CCCCC1C1C(=O)NC(=O)C31 (stereo not drawn) [Compound 91] |
|  |  |  |  |  |  | >120 | >120 | CC(C)(C)C1CCC2c3c([nH]c4ccc(Br)cc34)C3C(=O)N(c4ccccc4)C(=O)C3C2C1 (stereo not drawn) [Compound 19] |
|  |  |  |  |  |  | 30 | >120 | CC1CCC2C(C1)c1c([nH]c3ccccc13)C1C(=O)NC(=O)C12 (stereo not drawn) [Compound 56] |
|  |  |  |  |  |  | >120 | >120 | CCOC(=O)N1CCC2c3c([nH]c4ccccc34)C3C(=O)NC(=O)C3C2C1 (stereo not drawn) [Compound 54] |
